# Test results published in PMC12203525, “The insight into the biology of five homologous lectins produced by the entomopathogenic bacterium and nematode symbiont Photorhabdus laumondii” (Glycobiology, 2025).
# Like-named read-outs stand apart in the source and are kept apart here.
# Legend:
# [1] = target: T1, PLL4 (Photorhabdus laumondii subsp. laumondii, UniProt Q7N8I6); test: Glycan microarray screening (634 saccharide ligands); format: binding, Photorhabdus laumondii subsp. laumondii TT01; details: DyLight488-labelled PLL4, 200 μg/mL
# Protocol: Lectins were fluorescently labelled with DyLight 488 according to the manufacturer’s instructions and the unbound dye was extensively dialyzed out of the protein solution. The microarray chip (Semiotik LLC, Moscow, Russia, batch OSPS280715) containing 634 saccharide ligands, each in 6 replicates, was treated with PBS (137 mM NaCl, 2.7 mM KCl, 8 mM Na2HPO4, […], pH 7.4) with added 0.1% Tween-20 for 15 min. The labelled proteins (200 μg/mL) were then separately applied to the chip surface and incubated in a humidity chamber at 37 °C for 1 h. After the incubation, the unbound protein was washed out with PBS containing 0.05% Tween-20 and deionized water. The chip was dried by airflow and scanned using an InnoScan1100 AL (Innopsys, Carbonne, France) with a 488 nm laser. The data were analyzed with the software Mapix 8.2.2 and an online glycan chip converter (Semiotic, https://rakitko.shinyapps.io/semiotik).
# [2] = target: T2, PLL (Photorhabdus laumondii subsp. laumondii, UniProt Q7N8J0); test: SPR inhibition assay on the MGMR channel; parameters: species or system Photorhabdus laumondii subsp. laumondii TT01; details: inhibition of PLL (250 nM) binding to immobilized MGMR
# Protocol: (§1) SPR experiments were carried out on BIAcore T200 or BIAcore S200 instruments (GE Healthcare, UK). Sugar moieties were immobilized on the chip surface using the standard procedures according to the manufacturer’s instructions. Measurements with immobilized MGMR were performed on the chip prepared previously (high-density chip) ([Fujdiarová et al. 2021]). Measurements with immobilized α-L-fucose were performed on the streptavidin chip (GE Healthcare, UK). Biotinylated α-L-fucose was immobilized on channel 2 to yield a final response of 29 RU, unmodified channel 1 was used as a control.
# (§2) Measurements were performed in Tris buffer with the addition of 0.05% Tween 20 at a flow rate of 30 μl/min at 25 °C. […] 50 mM NaOH for 30 s (flow 30 μl/min) was used for chip regeneration. To determine KDs (app) towards MGMR, 2-fold dilution series of lectins was used (PLL: 0.048 – 50 μM, PLL4: 0.008 - 2 μM; PLL5: 1.9 – 500 nM). The data were evaluated with the BIAcore T200 or BIAcore S200 evaluation software using a steady state approach. To determine KD(app) towards α-L-fucose, 2-fold dilution series of lectins was used (PLL: 1.25 – 20 μM, PLL4: 0.39 – 12.5 μM; PLL5: 0.12 – 30 μM). The data were evaluated with the BIAcore T200 or BIAcore S200 evaluation software using a steady state approach (PLL5) or a single-cycle kinetics approach (PLL, PLL4). For SPR inhibition experiments on the MGMR channel, 250 nM PLL, 250 nM PLL4 or 62 nM PLL5, respectively, was used. Proteins of the given concentration were mixed with a concentration series of tested inhibitors (0.01 - 0.4 M). Proteins without an inhibitor were used as a control. The response of the lectin bound to the sugar surface at equilibrium was plotted against the concentration of inhibitor in order to determine IC50. The response in the appropriate blank channel was subtracted prior to all evaluations.
# [3] = target: T1, PLL4; test: SPR inhibition assay on the MGMR channel; parameters: species or system Photorhabdus laumondii subsp. laumondii TT01; details: inhibition of PLL4 (250 nM) binding to immobilized MGMR
# Protocol: as §1, §2
# [4] = target: T3, PLL5 (Photorhabdus laumondii subsp. laumondii, UniProt Q7N8I5); test: SPR inhibition assay on the MGMR channel; parameters: species or system Photorhabdus laumondii subsp. laumondii TT01; details: inhibition of PLL5 (62 nM) binding to immobilized MGMR
# Protocol: as §1, §2
# [5] = target: T2, PLL; test: Isothermal titration calorimetry (ITC); format: binding, Photorhabdus laumondii subsp. laumondii TT01
# Protocol: (§3) ITC experiments were performed using an Auto-ITC200 calorimeter or Automated PEAQ-ITC calorimeter (both Malvern Panalytical, Malvern, UK). Measurements were carried out at 25 °C in the Tris buffer. Before the analyses, lectins were extensively dialyzed against the Tris buffer and the dialysate was used to dissolve ligands. The protein (0.1 mM or 0.2 mM) in the cell was titrated with 2 μL injections of the ligand (20 mM or 40 mM). […] Experiments for each interacting ligand were carried out in triplicates. Integrated heat effects were evaluated by nonlinear regression using a single-site binding model in Origin 7 (OriginLab, Northampton, USA) ([Wiseman et al. 1989]). Triplicate measurements were fitted simultaneously using a global fit approach. Due to the low affinity of the interaction, the binding stoichiometry was fixed during the fitting.
# [6] = target: T1, PLL4; test: Isothermal titration calorimetry (ITC); format: binding, Photorhabdus laumondii subsp. laumondii TT01; details: for KD / Kd: ITC; for interaction with the sugar in ITC (in words): PLL4
# Protocol: as §3
# [7] = target: T3, PLL5; test: Isothermal titration calorimetry (ITC); format: binding, Photorhabdus laumondii subsp. laumondii TT01; details: for KD / Kd: ITC; for interaction with the sugar in ITC (in words): PLL5
# Protocol: as §3
# [8] = test system: PLL2; parameters: method as in Faltinek et al. 2019; Fujdiarová et al. 2021; details: inhibition of PLL2 binding to immobilized MGMR, ref Faltinek et al. 2019, Fujdiarová et al. 2021, cited from earlier work
# [9] = test system: PLL3; parameters: method as in Faltinek et al. 2019; Fujdiarová et al. 2021; details: inhibition of PLL3 binding to immobilized MGMR, ref Faltinek et al. 2019, Fujdiarová et al. 2021, cited from earlier work
# [10] = target: PLL2; parameters: method as in Fujdiarová et al, 2021, Faltinek et al, 2019; details: ref Fujdiarová et al, 2021, Faltinek et al, 2019, cited from earlier work; for Kd: ITC; for interaction with the sugar in ITC (in words): PLL2
# [11] = target: PLL3; parameters: method as in Fujdiarová et al, 2021, Faltinek et al, 2019; details: ref Fujdiarová et al, 2021, Faltinek et al, 2019, cited from earlier work; for Kd: ITC; for interaction with the sugar in ITC (in words): PLL3
# [12] = ITC, stoichiometry N fixed to 2
# [13] = ITC, stoichiometry N fixed to 4
# [14] = ITC, stoichiometry N fixed to 6
# [15] = ITC, stoichiometry N fixed to 8
# [16] = PLL4, stoichiometry N fixed to 2
# [17] = PLL4, stoichiometry N fixed to 4
# [18] = PLL4, stoichiometry N fixed to 6
# [19] = PLL4, stoichiometry N fixed to 8
# [20] = PLL5, stoichiometry N fixed to 2
# [21] = PLL5, stoichiometry N fixed to 4
# [22] = PLL5, stoichiometry N fixed to 6
# [23] = PLL5, stoichiometry N fixed to 8
# [24] = PLL2, stoichiometry N fixed to 8
# [25] = PLL3, stoichiometry N fixed to 2
# [26] = PLL3, stoichiometry N fixed to 4
# [27] = PLL3, stoichiometry N fixed to 6
# [28] = PLL3, stoichiometry N fixed to 8
# [29] = PLL2, stoichiometry N fixed to 2
# [30] = PLL2, stoichiometry N fixed to 4
# [31] = PLL2, stoichiometry N fixed to 6
# T2 sequence (Q7N8J0 entry or part of it): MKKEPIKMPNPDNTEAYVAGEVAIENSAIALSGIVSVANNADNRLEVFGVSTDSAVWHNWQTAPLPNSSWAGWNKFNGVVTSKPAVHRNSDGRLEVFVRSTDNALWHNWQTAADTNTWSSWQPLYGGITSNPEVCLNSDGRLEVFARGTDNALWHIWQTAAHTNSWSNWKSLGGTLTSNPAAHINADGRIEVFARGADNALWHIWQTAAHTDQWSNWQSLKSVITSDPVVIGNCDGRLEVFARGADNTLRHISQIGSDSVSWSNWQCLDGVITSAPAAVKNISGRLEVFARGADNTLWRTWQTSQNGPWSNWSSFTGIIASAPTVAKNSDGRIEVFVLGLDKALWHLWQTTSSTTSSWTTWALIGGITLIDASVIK
# T1 sequence (Q7N8I6 entry or part of it): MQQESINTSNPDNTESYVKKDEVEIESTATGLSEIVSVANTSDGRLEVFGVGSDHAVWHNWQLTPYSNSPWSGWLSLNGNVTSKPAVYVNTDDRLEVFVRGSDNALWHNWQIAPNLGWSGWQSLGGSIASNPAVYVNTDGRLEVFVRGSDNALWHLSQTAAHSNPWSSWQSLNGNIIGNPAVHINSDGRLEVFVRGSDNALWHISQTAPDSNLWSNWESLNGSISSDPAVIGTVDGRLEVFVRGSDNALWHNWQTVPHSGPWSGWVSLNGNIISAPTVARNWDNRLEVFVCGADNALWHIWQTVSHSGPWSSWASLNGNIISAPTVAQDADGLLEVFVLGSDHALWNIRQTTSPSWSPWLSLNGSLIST
# T3 sequence (Q7N8I5 entry or part of it): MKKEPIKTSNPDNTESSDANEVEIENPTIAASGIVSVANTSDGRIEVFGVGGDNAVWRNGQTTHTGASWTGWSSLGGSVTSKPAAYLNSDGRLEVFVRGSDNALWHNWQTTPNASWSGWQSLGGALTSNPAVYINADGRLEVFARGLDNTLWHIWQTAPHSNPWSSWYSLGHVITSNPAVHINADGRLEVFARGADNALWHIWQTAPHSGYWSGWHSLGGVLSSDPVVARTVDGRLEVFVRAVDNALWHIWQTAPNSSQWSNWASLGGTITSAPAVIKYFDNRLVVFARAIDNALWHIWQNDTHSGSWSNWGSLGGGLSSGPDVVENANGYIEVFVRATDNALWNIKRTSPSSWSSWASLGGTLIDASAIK
SMILES,IC50 [2] [mM],IC50 [3] [mM],IC50 [4] [mM],interaction with the sugar in ITC (in words) [5],"KD [5, 12]","KD [5, 13]","KD [5, 14]","KD [5, 15]","KD [6, 16]","KD [6, 17]","KD [6, 18]","KD [6, 19]",interaction with the sugar in ITC (in words) [6],"KD [7, 20]",IC50 ([8]; read-out: IC50) [mM],"Kd [11, 25] [mM]","Kd [11, 26] [mM]","Kd [11, 27] [mM]","Kd [11, 28] [mM]","Kd [10, 30] [mM]",also measured
OC[C@H]1O[C@@H](O[C@H]2[C@H](O)[C@@H](O)C(O)O[C@@H]2CO)[C@H](O)[C@@H](O)[C@H]1O (mixture of isomers) [lactose],,,,,,,,,,,,,,,,,,,,,glycan array binding (in words) [1]: recognized
"CO[C@@H]([C@H](O)[C@H](O)CO)[C@@H](O)C=O [3OMG, 3-O-methyl-D-glucose]",48.1 ± 14.9,13.1 ± 0.84,16.9 ± 2.69,did not bind these sugars significantly,No int,No int,No int,No int,No int,No int,No int,No int,did not bind these sugars significantly,No int,5.2 ± 0.91,11.5 ± 1.55,11.1 ± 1.5,10.7 ± 1.5,10.2 ± 0.62,,"KD [7, 21]: No int; KD [7, 22]: No int; KD [7, 23]: No int; interaction with the sugar in ITC (in words) [7]: did not bind these sugars significantly; IC50 ([9]; read-out: IC50): 26.4 ± 2.84 mM; Kd [10, 24]: 11.2 ± 0.8 mM; interaction with the sugar in ITC (in words) [10]: interacted; interaction with the sugar in ITC (in words) [11]: interacted"
CC(=O)N[C@@H]1[C@@H](O)[C@H](O[C@@H]2O[C@H](CO)[C@H](O)[C@H](O)[C@H]2O[C@@H]2O[C@H](C)[C@H](O)[C@H](O)[C@H]2O)[C@@H](CO)O[C@H]1O [D-Fucβ1-2-D-Galβ1-4-D-GlcNAcβ],,,,,,,,,,,,,,,,,,,,,glycan array binding (in words) [1]: recognized
"O=C[C@H](O)[C@@H](O)[C@@H](O)[C@H](O)CO [D-Gal, D-galactose]",,,,did not bind these sugars significantly,No int,No int,No int,No int,No int,No int,No int,No int,did not bind these sugars significantly,No int,> 100,3 ± 0.06,2.7 ± 0.14,2.5 ± 0.13,2.2 ± 0.06,0.4 ± 0.03,"KD [7, 21]: No int; KD [7, 22]: No int; KD [7, 23]: No int; interaction with the sugar in ITC (in words) [7]: did not bind these sugars significantly; IC50 [8]: not PLL2; IC50 [9]: inhibited only the binding of PLL3; Kd [10, 29]: 0.5 ± 0.02 mM; Kd [10, 31]: 0.3 ± 0.04 mM; Kd [10, 24]: 0.3 ± 0.06 mM; interaction with the sugar in ITC (in words) [10]: interacted; interaction with the sugar in ITC (in words) [11]: interacted"
OC[C@H]1OC(O)[C@H](O)[C@@H](O)[C@@H]1O (stereo partly drawn) [D-Glc],,,,did not bind these sugars significantly,No int,No int,No int,No int,No int,No int,No int,No int,did not bind these sugars significantly,No int,,4 ± 0.12,3.6 ± 0.08,3.3 ± 0.07,3.1 ± 0.11,3.6 ± 0.21,"KD [7, 21]: No int; KD [7, 22]: No int; KD [7, 23]: No int; interaction with the sugar in ITC (in words) [7]: did not bind these sugars significantly; interaction with the sugar in ITC (in words) [10]: interacted; interaction with the sugar in ITC (in words) [11]: interacted"
"C[C@H](O)[C@@H](O)[C@@H](O)[C@H](O)C=O [L-Fuc, L-fucose]",19.5 ± 7.5,5.7 ± 0.21,3.6 ± 0.13,,No int,No int,No int,No int,,,,,,,1.2 ± 0.04,3.6 ± 0.14,3.3 ± 0.12,3.1 ± 0.1,2.9 ± 0.1,2.6 ± 0.08,"Kd [6, 16]: 31.2 ± 0.95 mM; Kd [6, 17]: 29.9 ± 0.9 mM; Kd [6, 18]: 28.6 ± 0.89 mM; Kd [6, 19]: 27.2 ± 0.86 mM; Kd [7, 20]: 16.6 ± 1.02 mM; Kd [7, 21]: 16 ± 1.01 mM; Kd [7, 22]: 15.4 ± 1 mM; Kd [7, 23]: 14.7 ± 0.99 mM; IC50 ([9]; read-out: IC50): 2.5 ± 0.09 mM; Kd [10, 29]: 2.8 ± 0.07 mM; Kd [10, 31]: 2.4 ± 0.08 mM; Kd [10, 24]: 2.1 ± 0.1 mM"
"CO[C@@H]1O[C@@H](C)[C@@H](O)[C@@H](O)[C@@H]1O [αMeFuc, methyl-α-L-fucoside]",4 ± 1.35,1.4 ± 0.04,1.7 ± 0.13,,,,,,,,,,,,0.1 ± 0.01,,0.7 ± 0.03,,,0.4 ± 0.02,"Kd [5, 12]: 3.6 ± 0.07 mM; Kd [6, 17]: 4.9 ± 0.08 mM; Kd [7, 21]: 4.2 ± 0.17 mM; IC50 ([9]; read-out: IC50): 1 ± 0.05 mM"
